Test results as given in article PMC7961380, “A Systematic Study of the In Vitro Pharmacokinetics and Estimated Human In Vivo Clearance of Indole and Indazole-3-Carboxamide Synthetic Cannabinoid Receptor Agonists Detected on the Illicit Drug Market” (Molecules, 2021).
“And” between values parts separate entries of the source, which are not always exact repeats. Equal entries are not always repeated. Where two headings read alike, the source gives them in different places.

Legend:
[1] = Chromatographic hydrophobicity index (CHI) log D at pH 7.4; settings: reversed-phase HPLC, Acquity BEH C18 column
Protocol: Chromatographic hydrophobicity index (CHI) log D samples (see below) were analysed using high-performance liquid chromatography (HPLC) with a Shimadzu Nexera X2 HPLC coupled to a Shimadzu SPD-30 MA photodiode array detector (PDA) (Shimadzu, Kyoto, Japan). […] The sample chamber was maintained at 25 °C. Gradient elution was performed, with mobile phase (MP) consisting of ammonium acetate in water (10 mM, pH 7.4) (MP A) and acetonitrile (MP B).
A calibration mix of ten compounds at 10 µg mL^−1 in 1:1 (v/v) water:ACN was used (theophylline, phenyltetrazole, benzimidazole, colchicine, phenyltheophilline, acetophenone, indole, propiophenone, butyrophenone and valerophenone (all Sigma-Aldrich)). Test compounds were prepared at 0.25 mM in 1:1 (v/v) water:ACN. Samples (n = 2 for calibration standards; n = 1 for test compounds) were analysed using UPLC-PDA as described above. Retention times of calibration compounds are used to calculate retention factor (k), which is plotted against literature CHI values for each compound.
Where tr is the retention time of the analyte and t0 is the retention time of an unretained compound
Calculation of chromatographic hydrophobicity index (CHI)
CHI = (𝑘 x slope) − intercept Eqn.4
Where k is the retention factor of the analyte.
Calculation of CHI Log D [1]
Where CHI is the chromatographic hydrophobicity index obtained using Equation 4

[2] = Short-term plasma stability with and without esterase inhibitors; settings: human, pH 7.4, Parent Compound Remaining (%), 3 h, 37 °C
[3] = Metabolic stability, pooled human cryopreserved hepatocyte incubations; settings: human, hepatocytes; for CLint scaled at 0.5 µM: Intrinsic clearance, pHHeps, alternative hepatocyte cell density 99x10^6 hepatocytes per gram liver; for half-life at 0.5 µM: T1/2 (min), pHHeps 0.25 million cells mL^−1, 0.5 µM, 37 °C, n ≥ 3 ± SD
[4] = system: pooled human cryopreserved hepatocytes (pHHeps); assay: as above; settings: for Predicted In Vivo Hepatic Clearance, CLH: from pHHeps CLint, well-stirred model with plasma fu, Q 21 mL min^−1 kg^−1
[5] = Plasma protein binding by equilibrium dialysis; type: in vitro ADME, human; settings: human, pooled human plasma, pH 7.4, equilibrium dialysis 5 h, 37 °C
[6] = Metabolic stability, pooled human liver microsome incubations; settings: for Predicted In Vivo Hepatic Clearance, CLH: from pHLM CLint, well-stirred model with plasma fu, Q 21 mL min^−1 kg^−1; for CLint scaled at 0.5 µM / half-life at 0.5 µM: human, microsomes; for CLint scaled at 0.5 µM: pH 7.4, Intrinsic clearance; for half-life at 0.5 µM: pH 7.4, T1/2 (min), pHLM 0.5 mg mL^−1, 0.5 µM, NADPH, 37 °C; for half-life at 0.5 µM / Microsomal Intrinsic Clearance, CLint micr: n ≥ 3 ± SD
[7] = Esterase Inhibitors, pH 7.4, BNPP and PMSF 500 µM each
[8] = plasma, No Esterase Inhibitors, pH 7.4, pooled human plasma
[9] = pHHeps, 99x10^6 hepatocytes per gram liver
[10] = 10 µg mL^−1, read-out: PPB (%) (converted)
[11] = plasma, read-out: Fraction Unbound (fu)
[12] = pHLM, alternative microsomal scaling factor 32 mg microsomal protein per gram liver
[13] = pHLM, alternative microsomal scaling factor 45 mg microsomal protein per gram liver
[14] = pHLM, scaling factor 32 mg microsomal protein per gram liver
[15] = pHLM, scaling factor 45 mg microsomal protein per gram liver

Structure (SMILES) | remaining at 3 h, 5 µM [2, 7] | remaining at 3 h, 5 µM [2, 8] | CLint scaled at 0.5 µM [3] | half-life at 0.5 µM [3] | Predicted In Vivo Hepatic Clearance, CLH [4] | Hepatic extraction ratio, EH ([4]; from pHHeps incubations) | Hepatic extraction ratio, EH [4, 9] | Predicted in vivo hepatic clearance, CLH [4, 9] | % parent compound remaining, Average ([4]; pHHeps, 3 min) | % parent compound remaining, Average ([4]; pHHeps, 6 min) | % parent compound remaining, Average ([4]; pHHeps, 9 min) | % parent compound remaining, Average ([4]; pHHeps, 15 min) | % parent compound remaining, Average ([4]; pHHeps, 30 min) | % parent compound remaining, Average ([4]; pHHeps, 45 min) | % parent compound remaining, Average ([4]; pHHeps, 60 min) | fraction unbound at 5 h, 10 µg mL^−1 [5, 10] | fraction unbound at 5 h, 10 µg mL^−1 [5, 11] | Predicted In Vivo Hepatic Clearance, CLH [6] | Hepatic extraction ratio, EH ([6]; from pHLM incubations) | CLint scaled at 0.5 µM [6, 12] | other results
COC(=O)[C@@H](NC(=O)c1cn(CC2CCCCC2)c2ccccc12)C(C)C [AMB-CHMICA (9), methyl [1-(cyclohexylmethyl)-1H-indole-3-carbonyl]valinate] | – | – | – | – | – | – | – | – | – | – | – | – | – | – | – | – | – | – | – | – | chromatographic logD [1]: 4.77
COC(=O)C(NC(=O)c1cn(CCCCCF)c2ccccc12)C(C)(C)C (centres unmarked) [5F-MDMB-PICA (3), methyl 2-[1-(5-fluoropentyl)-1H-indole-3-carboxamido]-3,3-dimethylbutanoate] | – | – | – | – | – | – | – | – | – | – | – | – | – | – | – | – | – | – | – | – | chromatographic logD [1]: 4.06
CC(C)[C@H](NC(=O)c1nn(Cc2ccc(F)cc2)c2ccccc12)C(N)=O [(S)-AB-FUBINACA (8), N-(1-amino-3-methyl-1-oxobutan-2-yl)-1-(4-fluorobenzyl)-1H-indazole-3-carboxamide] | 103 ± 2.5% | 104 ± 1.1% | 101 ± 32 mL/min/kg | 76 ± 24 min | 2.06 ± 0.58 mL/min/kg | 0.10 ± 0.028 | 0.09 ± 0.026 | 1.92 ± 0.55 mL/min/kg | 93.3% | 86.0% | 85.5% | 85.4% | 72.4% | 69.5% | 66.6% | 0.021 | 0.021 ± 0.0044 | 0.34 mL/min/kg and 0.34 ± 0.09 mL/min/kg | 0.02 and 0.02 ± 0.004 | 10 mL/min/kg | CLint scaled at 0.5 µM [6, 13]: 14.1 mL/min/kg; half-life at 0.5 µM [6]: 118 ± 28 min; % parent compound remaining, Average ([6]; pHLM, 3 min): 87.3%; % parent compound remaining, Average ([6]; pHLM, 6 min): 87.3%; % parent compound remaining, Average ([6]; pHLM, 9 min): 85.0%; % parent compound remaining, Average ([6]; pHLM, 15 min): 84.2%; % parent compound remaining, Average ([6]; pHLM, 30 min): 79.6%; Microsomal Intrinsic Clearance, CLint micr ([6]; pHLM): 0.012 ± 0.003 mL min^−1 mg Microsomal Protein^−1; Hepatic extraction ratio, EH [6, 14]: 0.01 ± 0.003; Predicted in vivo hepatic clearance, CLH [6, 14]: 0.21 ± 0.05 mL/min/kg; Hepatic extraction ratio, EH [6, 15]: 0.01 ± 0.004; Predicted in vivo hepatic clearance, CLH [6, 15]: 0.29 ± 0.07 mL/min/kg
C=CCCCn1cc(C(=O)N[C@H](C(=O)OC)C(C)C)c2ccccc21 [(S)-AMB-4en-PICA (7), methyl 3-methyl-2-[(1-pent-4-enylindole-3-carbonyl)amino] butanoate] | 95.6 ± 6.8% | 92.6 ± 8.3% | 1120 mL/min/kg | 6.9 ± 2.1 min | 15.56 ± 1.24 mL/min/kg | 0.74 ± 0.059 | 0.73 ± 0.061 | 15.25 ± 1.28 mL/min/kg | 68.4% | 54.6% | 33.2% | 19.4% | 6.5% | 1.9% | 0.6% | 0.053 | 0.053 ± 0.0037 | 9.29 ± 0.89 mL/min/kg | 0.44 ± 0.042 | 194 mL/min/kg | CLint scaled at 0.5 µM [6, 13]: 273 mL/min/kg; half-life at 0.5 µM [6]: 6 ± 1 min; % parent compound remaining, Average ([6]; pHLM, 3 min): 67.6%; % parent compound remaining, Average ([6]; pHLM, 6 min): 49.5%; % parent compound remaining, Average ([6]; pHLM, 9 min): 36.3%; % parent compound remaining, Average ([6]; pHLM, 15 min): 18.0%; % parent compound remaining, Average ([6]; pHLM, 30 min): 3.0%; Microsomal Intrinsic Clearance, CLint micr ([6]; pHLM): 0.236 ± 0.042 mL min^−1 mg Microsomal Protein^−1; Hepatic extraction ratio, EH [6, 14]: 0.33 ± 0.038; Predicted in vivo hepatic clearance, CLH [6, 14]: 6.86 mL/min/kg; Predicted in vivo hepatic clearance, CLH [6, 15]: 8.51 mL/min/kg
COC(=O)[C@@H](NC(=O)c1nn(CCCCCF)c2ccccc12)C(C)C [(S)-5F-AMB-PINACA (10), methyl [1-(5-fluoropentyl)-1H-indazole-3-carbonyl]valinate] | 89.8 ± 1.5% | 93 ± 6.1% | 2220 ± 115 mL/min/kg | 3.2 ± 0.16 min | 18.25 mL/min/kg and 18.25 ± 0.12 mL/min/kg | 0.87 and 0.87 ± 0.006 | 0.86 ± 0.006 | 18.06 ± 0.13 mL/min/kg | 60.1% | 23.2% | 11.4% | 3.0% | 0.3% | 0.1% | 0.2% | 0.058 | 0.058 ± 0.0008 | 17.79 mL/min/kg and 17.79 ± 0.20 mL/min/kg | 0.85 and 0.85 ± 0.010 | 1230 mL/min/kg | CLint scaled at 0.5 µM [6, 13]: 1730 ± 133 mL/min/kg; half-life at 0.5 µM [6]: 0.9 ± 0.07 min; % parent compound remaining, Average ([6]; pHLM, 3 min): 10.6%; % parent compound remaining, Average ([6]; pHLM, 6 min): 1.8%; % parent compound remaining, Average ([6]; pHLM, 9 min): 0.0%; % parent compound remaining, Average ([6]; pHLM, 15 min): 0.0%; % parent compound remaining, Average ([6]; pHLM, 30 min): 0.0%; Microsomal Intrinsic Clearance, CLint micr ([6]; pHLM): 1.494 ± 0.115 mL min^−1 mg Microsomal Protein^−1; Hepatic extraction ratio, EH [6, 14]: 0.77 ± 0.013; Predicted in vivo hepatic clearance, CLH [6, 14]: 16.21 mL/min/kg; Hepatic extraction ratio, EH [6, 15]: 0.83 ± 0.011; Predicted in vivo hepatic clearance, CLH [6, 15]: 17.35 ± 0.22 mL/min/kg
COC(=O)[C@@H](NC(=O)c1cn(CCCCCF)c2ccccc12)C(C)(C)C [(S)-5F-MDMB-PICA (3), methyl 2-[1-(5-fluoropentyl)-1H-indole-3-carboxamido]-3,3-dimethylbutanoate] | 99.5 ± 5.8% | 97.3 ± 6.4% | 188 mL/min/kg | 38 ± 4.6 min | 7.87 ± 0.58 mL/min/kg | 0.37 ± 0.027 | 0.36 ± 0.027 | 7.49 ± 0.56 mL/min/kg | 96.7% | 91.2% | 90.7% | 77.0% | 57.6% | 42.5% | 30.9% | 0.062 | 0.062 ± 0.0007 | 8.01 ± 0.84 mL/min/kg | 0.38 ± 0.04 | 128 mL/min/kg | CLint scaled at 0.5 µM [6, 13]: 181 ± 31.6 mL/min/kg; half-life at 0.5 µM [6]: 9 ± 1.4 min; % parent compound remaining, Average ([6]; pHLM, 3 min): 63.9%; % parent compound remaining, Average ([6]; pHLM, 6 min): 56.3%; % parent compound remaining, Average ([6]; pHLM, 9 min): 49.2%; % parent compound remaining, Average ([6]; pHLM, 15 min): 32.1%; % parent compound remaining, Average ([6]; pHLM, 30 min): 12.8%; Microsomal Intrinsic Clearance, CLint micr ([6]; pHLM): 0.156 ± 0.027 mL min^−1 mg Microsomal Protein^−1; Hepatic extraction ratio, EH [6, 14]: 0.27 ± 0.034; Predicted in vivo hepatic clearance, CLH [6, 14]: 5.75 mL/min/kg; Hepatic extraction ratio, EH [6, 15]: 0.35 ± 0.038; Predicted in vivo hepatic clearance, CLH [6, 15]: 7.27 ± 0.81 mL/min/kg
COC(=O)[C@@H](NC(=O)c1nn(Cc2ccc(F)cc2)c2ccccc12)C(C)(C)C [(S)-MDMB-FUBINACA (6)] | 91.6 ± 2.2% | 94.2 ± 6.3% | 275 mL/min/kg | 26 ± 5 min | 1.39 mL/min/kg and 1.39 ± 0.27 mL/min/kg | 0.07 and 0.07 ± 0.013 | 0.06 ± 0.012 | 1.29 ± 0.25 mL/min/kg | 90.3% | 73.3% | 80.1% | 73.3% | 38.8% | 17.3% | 9.1% | 0.005 | 0.005 ± 0.0008 | 0.87 ± 0.18 mL/min/kg | 0.04 ± 0.009 | 111 mL/min/kg | CLint scaled at 0.5 µM [6, 13]: 156 mL/min/kg; half-life at 0.5 µM [6]: 11 ± 2.4 min; % parent compound remaining, Average ([6]; pHLM, 3 min): 70.2%; % parent compound remaining, Average ([6]; pHLM, 6 min): 64.2%; % parent compound remaining, Average ([6]; pHLM, 9 min): 55.8%; % parent compound remaining, Average ([6]; pHLM, 15 min): 34.3%; % parent compound remaining, Average ([6]; pHLM, 30 min): 16.4%; Microsomal Intrinsic Clearance, CLint micr ([6]; pHLM): 0.135 ± 0.030 mL min^−1 mg Microsomal Protein^−1; Hepatic extraction ratio, EH [6, 14]: 0.03 ± 0.006; Predicted in vivo hepatic clearance, CLH [6, 14]: 0.54 ± 0.12 mL/min/kg; Hepatic extraction ratio, EH [6, 15]: 0.04 ± 0.008; Predicted in vivo hepatic clearance, CLH [6, 15]: 0.75 ± 0.16 mL/min/kg
